Measurements: patent publication US20120088759A1, “THIAZOLIDIN-4-ONE AND [1,3]-THIAZINAN-4-ONE COMPOUNDS AS OREXIN RECEPTOR ANTAGONISTS” (priority 2009, published 2012)

Key:
[1] = system: rat; details: rat model; cited from earlier work
[2] = system: rat; details: cited from earlier work
[3] = system: rat; details: cited from earlier work; remark: listed apart in the source
[4] = target: T1, human orexin-1 receptor (Homo sapiens, UniProt O43613); experiment: FLIPR intracellular calcium assay, orexin receptor antagonistic activity (OX1); type: cell-based; details: CHO cells expressing human orexin-1 receptor; 3 nM orexin-A; normalized to on-plate reference; *n = geometric mean from n values
T1 construct: expressed in transfected cells; host or cells: CHO (Chinese hamster ovary) cells, kept under G418
T1 sequence (O43613 1-425): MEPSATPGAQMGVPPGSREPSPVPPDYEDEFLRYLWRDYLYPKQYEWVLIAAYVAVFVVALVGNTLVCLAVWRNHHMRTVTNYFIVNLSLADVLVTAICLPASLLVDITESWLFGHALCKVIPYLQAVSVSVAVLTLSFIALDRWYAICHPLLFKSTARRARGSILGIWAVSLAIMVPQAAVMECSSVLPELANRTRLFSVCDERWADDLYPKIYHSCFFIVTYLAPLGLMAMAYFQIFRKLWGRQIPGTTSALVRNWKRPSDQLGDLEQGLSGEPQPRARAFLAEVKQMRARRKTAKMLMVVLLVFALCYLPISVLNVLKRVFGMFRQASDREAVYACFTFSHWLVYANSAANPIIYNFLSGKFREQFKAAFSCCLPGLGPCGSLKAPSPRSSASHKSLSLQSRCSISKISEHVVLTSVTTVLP
Procedure: (§1) The orexin receptor antagonistic activity of the compounds of formula (I) is determined in accordance with the following experimental method.
(§2) Chinese hamster ovary (CHO) cells expressing the human orexin-1 receptor and the human orexin-2 receptor, respectively, are grown in culture medium (Ham F-12 with L-Glutamine) containing 300 μg/ml G418, 100 U/ml penicillin, 100 μg/ml streptomycin and 10% heat inactivated fetal calf serum (FCS). The cells are seeded at 20′000 cells/well into 384-well black clear bottom sterile plates (Greiner). The seeded plates are incubated overnight at 37° C. in 5% CO2.
(§3) Human orexin-A as an agonist is prepared as 1 mM stock solution in MeOH:water (1:1), diluted in HBSS containing 0.1% bovine serum albumin (BSA), NaHCO3: 0.375 g/l and 20 mM HEPES for use in the assay at a final concentration of 3 nM.
(§4) Antagonists are prepared as 10 mM stock solution in DMSO, then diluted in 384-well plates using DMSO followed by a transfer of the dilutions into in HBSS containing 0.1% bovine serum albumin (BSA), NaHCO3: 0.375 g/l and 20 mM HEPES. On the day of the assay, 50 μl of staining buffer (HBSS containing 1% FCS, 20 mM HEPES, NaHCO3: 0.375 g/l, 5 mM probenecid (Sigma) and 3 μM of the fluorescent calcium indicator fluo-4 AM (1 mM stock solution in DMSO, containing 10% pluronic) is added to each well. The 384-well cell-plates are incubated for 50 min at 37° C. in 5% CO2 followed by equilibration at rt for 30-120 min before measurement.
(§5) Within the Fluorescent Imaging Plate Reader (FLIPR Tetra, Molecular Devices), antagonists are added to the plate in a volume of 10 μl/well, incubated for 10 min and finally 10 μl/well of agonist is added. Fluorescence is measured for each well at 1 second intervals, and the height of each fluorescence peak is compared to the height of the fluorescence peak induced by 3 nM orexin-A with vehicle in place of antagonist. For each antagonist, the IC50 value (the concentration of compound needed to inhibit 50% of the agonistic response) is determined and normalized using the obtained IC50 value of a on-plate reference compound. Optimized conditions were achieved by adjustment of pipetting speed and cell splitting regime. The calculated IC50 values of the compounds may fluctuate depending on the daily cellular assay performance. Fluctuations of this kind are known to those skilled in the art.

[5] = target: T2, human orexin-2 receptor (Homo sapiens, UniProt O43614); experiment: FLIPR intracellular calcium assay, orexin receptor antagonistic activity (OX2); type: cell-based; details: CHO cells expressing human orexin-2 receptor; 3 nM orexin-A; normalized to on-plate reference; *n = geometric mean from n values
T2 construct: expressed in transfected cells; host or cells: CHO (Chinese hamster ovary) cells, kept under G418
T2 sequence (O43614 1-444): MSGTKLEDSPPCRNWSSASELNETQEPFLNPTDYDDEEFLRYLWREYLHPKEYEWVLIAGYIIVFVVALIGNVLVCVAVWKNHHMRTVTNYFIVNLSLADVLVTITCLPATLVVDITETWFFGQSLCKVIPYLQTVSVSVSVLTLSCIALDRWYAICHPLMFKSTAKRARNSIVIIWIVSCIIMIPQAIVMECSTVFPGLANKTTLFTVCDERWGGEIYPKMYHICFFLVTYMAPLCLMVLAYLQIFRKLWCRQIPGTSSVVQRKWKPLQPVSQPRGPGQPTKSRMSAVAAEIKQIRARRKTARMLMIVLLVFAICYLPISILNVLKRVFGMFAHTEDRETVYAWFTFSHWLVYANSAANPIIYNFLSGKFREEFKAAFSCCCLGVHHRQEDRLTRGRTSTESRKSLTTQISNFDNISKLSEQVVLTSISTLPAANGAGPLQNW
Procedure: as §1, §2, §3, §4, §5

IC50 [4]	IC50 [5]	SMILES	memory function [1]	alertness, characterized by active wake and locomotion [2]	time spent in both REM and NREM sleep [2]	activity in a rat model of post-traumatic stress disorder [3]
–	–	CNC(=O)[C@@H](c1ccccc1)N1CCc2cc(OC)c(OC)cc2[C@@H]1CCc1ccc(C(F)(F)F)cc1 [(2R)-2-{(1S)-6,7-dimethoxy-1-[2-(4-trifluoromethyl-phenyl)-ethyl]-3,4-dihydro-1H-isoquinolin-2-yl}-N-methyl-2-phenylacetamide]	enhance memory function	decrease alertness	dose-dependently increase	active
1740 nM	121 nM	COc1cccc(OC)c1C1SCC(=O)N1Cc1ccc(Oc2ccc(C)nn2)cc1 (stereo not drawn) [Example 280, 2-(2,6-Dimethoxy-phenyl)-3-[4-(6-methyl-pyridazin-3-yloxy)-benzyl]-thiazolidin-4-one]	–	–	–	–
781 nM	61 nM	COc1cccc(OC)c1C1SCC(=O)N1Cc1ccc(Oc2ccc(C)cn2)cc1 (stereo not drawn) [Example 281, 2-(2,6-Dimethoxy-phenyl)-3-[4-(5-methyl-pyridin-2-yloxy)-benzyl]-thiazolidin-4-one]	–	–	–	–
1950 nM	127 nM	COc1cccc(Oc2ccc(CN3C(=O)CSC3c3c(OC)cccc3OC)cc2)n1 (stereo not drawn) [Example 282, 2-(2,6-Dimethoxy-phenyl)-3-[4-(6-methoxy-pyridin-2-yloxy)-benzyl]-thiazolidin-4-one]	–	–	–	–
942 nM	51 nM	COc1cccc(OC)c1C1SCC(=O)N1Cc1ccc(Oc2cccc(C)n2)cc1 (stereo not drawn) [Example 283, 2-(2,6-Dimethoxy-phenyl)-3-[4-(6-methyl-pyridin-2-yloxy)-benzyl]-thiazolidin-4-one]	–	–	–	–
344 nM	7 nM	COc1cccc(OC)c1C1SCC(=O)N1Cc1ccc(Oc2cc(C)ccn2)cc1 (stereo not drawn) [Example 284, 2-(2,6-Dimethoxy-phenyl)-3-[4-(4-methyl-pyridin-2-yloxy)-benzyl]-thiazolidin-4-one]	–	–	–	–
1220 nM	135 nM	COc1cccc(OC)c1C1SCC(=O)N1Cc1ccc(Oc2ncccc2C)cc1 (stereo not drawn) [Example 285, 2-(2,6-Dimethoxy-phenyl)-3-[4-(3-methyl-pyridin-2-yloxy)-benzyl]-thiazolidin-4-one]	–	–	–	–
553 nM	52 nM	COc1ccc(Oc2ccc(CN3C(=O)CSC3c3c(OC)cccc3OC)cc2)nc1 (stereo not drawn) [Example 286, 2-(2,6-Dimethoxy-phenyl)-3-[4-(5-methoxy-pyridin-2-yloxy)-benzyl]-thiazolidin-4-one]	–	–	–	–
166 nM	6 nM	COc1cccc(OC)c1C1N(Cc2ccc(OC(F)(F)F)cc2)C(=O)CS1(=O)=O (stereo not drawn) [Example 288, 2-(2,6-Dimethoxy-phenyl)-1,1-dioxo-3-(4-trifluoromethoxy-benzyl)-thiazolidin-4-one]	–	–	–	–
181 nM	16 nM	COc1cccc(OC)c1C1N(Cc2ccc(OC(C)C)cc2)C(=O)CS1(=O)=O (stereo not drawn) [Example 289, 2-(2,6-Dimethoxy-phenyl)-3-(4-isopropoxy-benzyl)-1,1-dioxo-thiazolidin-4-one]	–	–	–	–
375 nM	21 nM	CCOc1ccc(CN2C(=O)CS(=O)(=O)C2c2c(OC)cccc2OC)cc1 (stereo not drawn) [Example 290, 2-(2,6-Dimethoxy-phenyl)-3-(4-ethoxy-benzyl)-1,1-dioxo-thiazolidin-4-one]	–	–	–	–
